Measurements from publication PMC4833387 (PLoS ONE, 2016).

Molecular target: T1, Aurora B kinase (Homo sapiens, UniProt Q96GD4)
T1 construct: gene AURKB; 6×His-Aurora B/INCENP^(822–918); with INCENP^(822–918)
Experiment: in vitro […] kinase assay with recombinant complex (histone H3.[…] and MBP substrates); confirmed by IP kinase assay from HeLa lysates
Format: biochemical

T1 sequence (Q96GD4 whole entry): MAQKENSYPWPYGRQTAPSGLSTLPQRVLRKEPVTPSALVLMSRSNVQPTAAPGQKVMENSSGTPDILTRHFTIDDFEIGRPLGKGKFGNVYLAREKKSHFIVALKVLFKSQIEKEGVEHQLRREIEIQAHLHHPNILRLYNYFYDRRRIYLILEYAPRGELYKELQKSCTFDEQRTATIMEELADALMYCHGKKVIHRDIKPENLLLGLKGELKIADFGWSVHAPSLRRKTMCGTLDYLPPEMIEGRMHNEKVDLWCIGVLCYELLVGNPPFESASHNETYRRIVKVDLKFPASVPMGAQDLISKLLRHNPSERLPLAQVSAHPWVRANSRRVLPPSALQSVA
T1 sequence (Q9NQS7 822-918 partner): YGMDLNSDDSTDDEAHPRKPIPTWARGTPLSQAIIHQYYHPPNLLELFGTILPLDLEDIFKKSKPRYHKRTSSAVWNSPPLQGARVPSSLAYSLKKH

CC(=O)c1cnc2ccc(-c3cc(Cl)c(O)c(Cl)c3)nc2c1N[C@H]1CC[C@H](CN(C)C)CC1 [OTSSP167]
IC50: ~0.025 µM
